Laboratory results taken from publication PMC10342118, “Microbial Metabolites of 3-n-butylphthalide as Monoamine Oxidase A Inhibitors” (International Journal of Molecular Sciences, 2023).
Several values for one entry are separate records, joined by “and”; a condition that tells them apart may be missing. Equal entries are not always repeated. Where two headings read alike, the source gives them in different places. Marks after values point to notes of the source that are not given here.

Key:
MAO-A [1] = target: T1, MAO-A (Homo sapiens, UniProt P21397); test: Isothermal titration calorimetry (ITC) of the interaction of MAO-A with the compounds; type: binding
T1 sequence (P21397 1-527): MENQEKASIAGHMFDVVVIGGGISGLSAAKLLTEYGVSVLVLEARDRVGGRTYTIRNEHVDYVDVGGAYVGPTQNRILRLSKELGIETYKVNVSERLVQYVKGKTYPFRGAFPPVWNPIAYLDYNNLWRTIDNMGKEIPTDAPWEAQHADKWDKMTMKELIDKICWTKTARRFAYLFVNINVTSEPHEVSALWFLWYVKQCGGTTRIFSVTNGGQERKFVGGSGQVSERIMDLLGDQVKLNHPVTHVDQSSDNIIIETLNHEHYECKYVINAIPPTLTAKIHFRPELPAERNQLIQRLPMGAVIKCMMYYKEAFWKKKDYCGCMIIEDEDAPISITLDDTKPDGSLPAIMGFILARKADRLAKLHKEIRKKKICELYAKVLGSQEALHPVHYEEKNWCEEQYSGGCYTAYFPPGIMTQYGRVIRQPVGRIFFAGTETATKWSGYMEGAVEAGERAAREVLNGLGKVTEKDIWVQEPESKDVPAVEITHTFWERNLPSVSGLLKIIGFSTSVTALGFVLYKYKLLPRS
Protocol: (§1) Protein-ligand interaction analysis was performed using isothermal titration calorimetry (ITC). During the analysis, the heat of uptake or release, due to the interaction of MAO-A with the tested compounds, was recorded. In this way, raw data were obtained in the form of exothermic heat versus time graphs. Additionally, the ligand was injected into 1% DMSO with methanol to subtract the energetic effects of the dilution of the ligand solution. The highest negative change in enthalpy was characterized by the interaction of the enzyme with compounds 3 (−19.19 kJ/mol) and 4 (−13.37 kJ/mol), and the lowest value of ΔH was recorded during interactions with compound 1 (−4.51 kJ/mol). […] Affinity (ΔG) values were more evenly distributed between compound 1, compounds 1 with 4, 2 with 4, and 2 with 3. […] The ability of the ligands to inhibit […] activity was described on the basis of the IC50 parameter.
(§2) A MicroCal PEAQ-ITC200 calorimeter (Malvern, Worcestershire, UK) was used to study the interactions of MAO-A with the compounds. The enzyme and compounds were prepared in 1% DMSO with methanol. The measurements were performed at 36.6 °C. The stirring speed was set to 307 rpm, and a total of 19 injections were performed within 50 min, with the reference power set to 10.00 μcal/s. All sample solutions were thoroughly degassed before use. The calorimetric cell was filled with a 20 μM (350 µL) MAO-A sample, and the syringe (2 µL of injection volume) was loaded with a 1 mM/L solution or/and 5-HT (1 mM/L). The ITC data were processed using MicroCal PEAQ-ITC analysis software with calorimetric routines. The following parameters were determined: the standard interaction Gibbs energy (ΔG), standard interaction enthalpy (ΔH), entropy (ΔS), equilibrium constant (KD), and stoichiometry of reaction (N).

MAO-A [2] = target: T1, MAO-A; test: Inhibition of 5-HT deamination by the MAO-A enzyme (ITC); type: biochemical; conditions: for IC50: rate of 5-HT deamination
Protocol: as §1
Compounds 4 and 4 combined with 2 were at a similar level of about 5 μmol/μmol of the enzyme. Substrate 1, tested with lactones 2 and 3, turned out to be the least beneficial compounds, with a high concentration inhibiting the activity of the enzyme by 50%, and had the least favorable affinity. This effect can be explained by the binding of several compounds in the mixture to different MAO-A residues at the active site and in other regions. Molecular docking can be used in future research to confirm this assumption.
as §2

[3] = design: method as in PMID 23169608; conditions: in vivo; cited from earlier work
[4] = design: method as in PMID 34060121; conditions: rat plasma and liver microsomes; cited from earlier work
primary rat hepatocytes = conditions: concentration 0–500 µM; cited from earlier work
[5] = test system: primary human hepatocytes; conditions: concentration 0–500 µM; cited from earlier work
[6] = test system: primary rat hepatocytes and primary human hepatocytes; conditions: repetitive administration; cited from earlier work
MAO-A [7] = target: T1, MAO-A; design: method as in PMID 23374869; conditions: MAO-A inhibition; cited from earlier work
[8] = ITC, 36.6 °C, mean ± SD, n = 3, read-out: KD
[9] = KM 5-HT 0.35 mmol, mean ± SD, n = 3, read-out: Ki

SMILES	KA ∗ 10^3 (MAO-A [1]; ITC, 36.6 °C, mean ± SD, n = 3)	∆G (affinity) (MAO-A [1]; ITC, 36.6 °C, mean ± SD, n = 3)	∆H (MAO-A [1]; ITC, 36.6 °C, mean ± SD, n = 3)	∆S (MAO-A [1]; ITC, 36.6 °C, mean ± SD, n = 3)	Kd (MAO-A [1]; [8]) [µM]	Ki (MAO-A [2]; [9]) [µM]	rank among circulating human metabolites of 3-n-butylphthalide [3]	rank among metabolites of 3-n-butylphthalide [4]	IC50 (MAO-A [2])	Kd (MAO-A [1]) [µM]	Ki (MAO-A [2]) [µM]	toxicity (primary rat hepatocytes)	toxicity [5]	cell viability [6]	Ki (MAO-A [7]) [µM]
CC(O)CCC1OC(=O)c2ccccc21 (centres unmarked) [Compound 2, 3-n-butyl-10-hydroxyphthalide]	33.44 ± 0.15 ^a 10^3 L/mol	−26.79 ± 1.55 ^j kJ/mol	−7.77 ± 0.01 ^e kJ/mol	61.55 ± 1.84 ^d J/mol ∗ K	29.9 ± 1.09	994 ± 3.18	dominant circulating human metabolite	main metabolite							
O=C(O)CCCC1OC(=O)c2ccccc21 (centres unmarked) [Compound 4, 3-n-butylphthalide-11-oic acid]	14.83 ± 0.25 ^e 10^3 L/mol	−28.42 kJ/mol and −28.42 ± 1.43 ^j kJ/mol	−13.37 kJ/mol and −13.37 ± 0.02 ^f kJ/mol	48.71 ± 1.05 ^a J/mol ∗ K	67.4 ± 3.15	128 ± 1.25			about 5 μmol/μmol of enzyme						
CCCCC1OC(=O)c2ccccc21 (centres unmarked) [Compound 1, 3-n-butylphthalide]	41.15 ± 0.36 ^d 10^3 L/mol	-6.532 ± 0.272 kcal/mol	−4.51 kJ/mol and −4.51 ± 0.02 ^e kJ/mol	73.85 ± 1.05 ^d J/mol ∗ K						24.3 ± 1.39	241 ± 3.55	not toxic	not toxic	reduction in cell viability	
O=C1OCc2ccc(OCCCc3ccccc3)cc21 [6-phenyl-propoxyphthalide]															0.062
O=C1OC(CCCCO)c2ccccc21 (centres unmarked) [Compound 3, 3-n-butyl-11-hydroxyphthalide]	4.18 ± 0.35 ^e 10^3 L/mol	−23.49 kJ/mol and −23.49 ± 1.42 ^i kJ/mol	−19.19 kJ/mol and −19.19 ± 0.01 ^f kJ/mol	13.92 ± 0.92 ^a J/mol ∗ K	239 ± 4.25	< 0.001			1.29 μmol/μmol of enzyme						
